Assays:
[1] = molecular target: T1, Lanosta-8,24-dien-3β-ol 14α-methyl demethylase (Rattus norvegicus, UniProt Q64654); test: Lanosta-8,24-dien-3β-ol 14α-Methyl Demethylase Inhibition Assay; assay type: biochemical
T1 construct: rat hepatic microsomal preparations; from tissue; host or cells: rat liver microsomes
T1 sequence (Q64654 1-503): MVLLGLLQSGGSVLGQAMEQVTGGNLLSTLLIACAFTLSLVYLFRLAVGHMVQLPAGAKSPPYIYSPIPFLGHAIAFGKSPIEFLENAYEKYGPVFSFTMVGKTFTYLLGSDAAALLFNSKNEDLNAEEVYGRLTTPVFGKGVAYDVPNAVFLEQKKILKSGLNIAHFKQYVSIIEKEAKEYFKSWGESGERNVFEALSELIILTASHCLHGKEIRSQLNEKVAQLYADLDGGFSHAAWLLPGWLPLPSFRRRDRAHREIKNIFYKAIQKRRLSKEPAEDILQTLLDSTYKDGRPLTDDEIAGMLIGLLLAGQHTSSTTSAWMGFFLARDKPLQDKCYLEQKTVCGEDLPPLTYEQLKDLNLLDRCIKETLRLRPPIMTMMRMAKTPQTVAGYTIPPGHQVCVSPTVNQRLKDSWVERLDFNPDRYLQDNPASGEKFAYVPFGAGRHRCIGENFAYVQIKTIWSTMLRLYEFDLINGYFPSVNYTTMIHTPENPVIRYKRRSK
Procedure: B. Lanosta-8,24-dien-3β-ol 14α-Methyl Demethylase Inhibition Assay
Lanosta-8,24-dien-3β-ol 14α-methyl demethylase activity was determined in rat hepatic microsomal preparations as described in Trzaskos et al., J. Biol. Chem., 261, 16937-16942 (1986). Specifically, test compounds were added to assay mixtures as detergent suspensions with substrate employing 5 mg Triton WR-1339, 100 μM lanost-8-en-3β-ol substrate, and test compounds ranging from 0 to 100 μM. The inhibitor/substrate/detergent suspension was incubated with 2 mg microsomal protein for 5 min at 37° followed by a 10 min incubation initiated by the addition of cofactors required for the reaction. […] Inhibition values are expressed as the amount of compound required to inhibit lanosta-8,24-dien-3β-ol 14α-methyldemethylase activity by 50% relative to that of the controls.

[2] = system: 3-Hydroxy-3-Methylglutaryl Coenzyme A Reductase (HMGR); test: HMGR Suppression Assay (HMGR activity in digitonin-permeabilized CHO cells); assay type: cell-based, Chinese Hamster (CHO cells); conditions: tested under the same conditions as Table I
Procedure: The ability of the compounds of Formula I to suppress the activity of HMGR, the rate limiting enzyme of cholesterol biosynthesis, was tested as follows. Chinese Hamster Ovary (CHO) cells were divided twice weekly and were maintained in McCoy's 5A medium supplemented with 1% Cab-O-Sil delipidated Fetal Bovine Serum (FBS) (obtained from Gibco Laboratories, Chagrin Falls, Ohio). […] Control cells were treated in an identical fashion to those which received test compound, except they were incubated with the BSA and ethanol suspension only.
Specifically, the medium in each well was aspirated and the cells rinsed with a 50 mM solution of phosphate buffered saline (PBS). One mL of 30 μg/mL of digitonin in CSK buffer (prepared using 10 mM Pipes [piperazine-N,N'-bis(2-ethansulfonic)acid'], 100 mM KCl, 2.5 mM MgCl2, 300 mM sucrose, 1 mM EGTA, pH 6.8) was added to each well and incubated for 10 min at 22° to permeabilize the cells. […] HMGR activity was measured directly by adding 75 μL of PIB buffer (50 mM potassium phosphate, 1 mM Na2 EDTA, 10 mM dithiothreitol, pH 7.4) to each well and incubating the cells for 30 minutes at 37° as described above. […] The assay mixture was incubated for 30 min at 37° and terminated by the addition of 70 μL of [^3 H]-mevalonic acid (35,000 DPM/assay), 0.15 mg/mL in 3 N HCl. The reaction was left to lactonize for an additional 30 min at 37° or overnight at room temperature.
Reaction products were separated by thin layer chromatography on silica gel G (obtained from Analtech, Newark, Del.) developed in an unsaturated environment with acetone:benzene (3:2, v:v). The band corresponding to mevalonolactone was identified by exposure to iodine vapor and was scraped into counting vials. […] Corrections for recovery and blank values were made for each sample. […] Cellular protein was solubilized from culture dishes by the addition of 20 μL of 16 N KOH and assayed directly for protein amount. Suppression values are expressed as the amount of compound required to suppress HMGR activity by 50% relative to that of the controls.

[3] = system: de novo cholesterol synthesis; test: Decreasing de novo cholesterol synthesis (radiolabeled acetate incorporation into cholesterol in CHO cells); assay type: cell-based, Chinese Hamster (CHO cells); conditions: Cricetulus griseus, 19 h, % of control culture (Control = 100)
Procedure: The ability of the compounds of Formula I to decrease de novo cholesterol synthesis was tested by measuring the incorporation of radiolabeled acetate into cholesterol synthesized in CHO cells. To conduct this experiment, CHO cells were plated at 0.3×10^6 cells per 15×60 mm tissue culture dish in 5 mL of McCoy's modified medium (Gibco Laboratories) containing 1% Cab-O-Sil delipidated FBS and incubated for 48 hours at 37° in a 5% CO2, 95% air environment. Test compounds in a 2.5% suspension of BSA (fatty acid free) in ethanol were then added to the cultures such that the final ethanol and BSA concentrations were 0.5% and 2.5%, respectively. Control cultures received ethanol and BSA alone. […]
The cells were harvested by washing the cells twice with 5 mL of cold PBS and scraping the cells into 1 mL PBS. […] The petroleum ether fractions were dried under nitrogen, resuspended in ethanol, counted and analyzed by reverse phase HPLC at 45° using an Ultrashpere Octyl column (from Altex Scientific Inc., Berkeley, Calif.) with a mobile phase of acetonitrile:methanol:water (44:44:12). The amount of cholesterol synthesis is measured by the amount of radiolabeled acetate incorporated into the cholesterol peak. The percent of cholesterol synthesis in the treated culture is calculated based upon the control culture.

Compound	substrate for the demethylase enzyme [1]	effect on measured HMGR activity [2]	IC50 ([1]; rat hepatic microsomes, 100 μM lanost-8-en-3β-ol substrate, test compounds 0 to 100 μM) [nM]	activity at 1 µM [3] [%]	effect on lanosta-8,24-dien-3β-ol 14α-methyl demethylase activity ([1]; tested under the same conditions as Table I)
CC(C)=CCC[C@@H](C)[C@H]1CC[C@@]2(C)C3=C(CC[C@]12C)[C@@]1(C)CC[C@H](O)C(C)(C)[C@@H]1CC3 [lanosta-8,24-dien-3β-ol]	clearly served as substrates	without effect	–	–	–
CC(C)CCC[C@@H](C)[C@H]1CC[C@@]2(C)C3=C(CC[C@]12C)[C@@]1(C)CC[C@H](O)C(C)(C)[C@@H]1CC3 [lanost-8-en3β-ol, lanost-8-en-3β-ol]	clearly served as substrates	without effect	–	–	–
C=CC(O)[C@@]12CC[C@H]([C@H](C)CCCC(C)C)[C@@]1(C)CCC1=C2CC[C@H]2C(C)(C)[C@@H](O)CC[C@]12C (single isomer, unassigned) [Compound 11a, 4,4-dimethyl-14α-(1'-hydroxy-2'-propenyl)-5α-cholest-8-en-3β-ol]	–	–	800	1	–
CC(C)CCC[C@@H](C)[C@H]1CC[C@H]2[C@@H]3CC=C4C[C@@H](O)CC[C@]4(C)[C@H]3CC[C@]12C [cholesterol]	–	without effect	–	–	without effect
